Experimental data: PubChem BioAssay (NCI)
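In this assay, cells in 96-well plates receive the compound at five concentrations for 48 hours. Endpoints are linearly interpolated between the surrounding concentrations. GI50 = concentration required for 50% inhibition of growth. TGI is the concentration that stops growth completely.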

Key:
Test in all cases: growth of human tumour cells (NCI), 48 h
[1] = tested on: 786-0 renal
[2] = tested on: SN12C renal
[3] = tested on: HT29 colon
[4] = tested on: SK-OV-3 ovarian
[5] = tested on: CCRF-CEM leukemia
[6] = tested on: HCC-2998 colon
[7] = tested on: SK-MEL-28 melanoma
[8] = tested on: SNB-75 CNS
[9] = tested on: SK-MEL-5 melanoma
[10] = tested on: NCI-H460 lung
[11] = tested on: PC-3 prostate
[12] = tested on: NCI-H23 lung
[13] = tested on: IGROV1 ovarian
[14] = tested on: SR leukemia
[15] = tested on: A498 renal
[16] = tested on: MDA-MB-231 breast
[17] = tested on: SK-MEL-2 melanoma
[18] = tested on: HL-60(TB) leukemia
[19] = tested on: CAKI-1 renal
[20] = tested on: NCI-H522 lung
[21] = tested on: U251 CNS
[22] = tested on: HOP-62 NSCLC
[23] = tested on: UACC-62 melanoma
[24] = tested on: SNB-19 CNS
[25] = tested on: SF-295 CNS
[26] = tested on: SF-539 CNS
[27] = tested on: MCF7 breast
[28] = tested on: BT-549 breast
[29] = tested on: OVCAR-8 ovarian
[30] = tested on: SW-620 colon
[31] = tested on: OVCAR-4 ovarian
[32] = tested on: HCT-15 colon
[33] = tested on: HOP-92 NSCLC
[34] = tested on: SF-268 CNS
[35] = tested on: HS 578T breast
[36] = tested on: RPMI-8226 leukemia
[37] = tested on: T-47D breast
[38] = tested on: MDA-MB-435
[39] = tested on: A549 NSCLC
[40] = tested on: UACC-257 melanoma
[41] = tested on: OVCAR-5 ovarian
[42] = tested on: K-562 leukemia
[43] = tested on: LOX IMVI melanoma
[44] = tested on: COLO 205 colon
[45] = tested on: ACHN renal
[46] = tested on: MALME-3M melanoma
[47] = tested on: MOLT-4 leukemia
[48] = tested on: DU-145 prostate
[49] = tested on: KM12 colon
[50] = tested on: TK-10 renal
[51] = tested on: UO-31 renal
[52] = tested on: NCI-H226 lung
[53] = tested on: OVCAR-3 ovarian
[54] = tested on: NCI/ADR-RES ovarian
[55] = tested on: HCT-116 colon
[56] = tested on: M14 melanoma
[57] = tested on: RXF 393 renal

Compound: Nc1c(C(=O)c2cccc(-c3ccncc3)c2)cnn1-c1ccc(F)cc1
- GI50 [1]: > 25 µM
- TGI [1]: > 25 µM
- GI50 [2]: > 25 µM
- TGI [2]: > 25 µM
- GI50 [3]: > 25 µM
- TGI [3]: > 25 µM
- GI50 [4]: > 25 µM
- TGI [4]: > 25 µM
- GI50 [5]: > 25 µM
- TGI [5]: > 25 µM
- GI50 [6]: > 25 µM
- TGI [6]: > 25 µM
- GI50 [7]: > 25 µM
- TGI [7]: > 25 µM
- GI50 [8]: > 25 µM
- TGI [8]: > 25 µM
- GI50 [9]: 5.69 µM
- TGI [9]: > 25 µM
- GI50 [10]: > 25 µM
- TGI [10]: > 25 µM
- GI50 [11]: > 25 µM
- TGI [11]: > 25 µM
- GI50 [12]: > 25 µM
- TGI [12]: > 25 µM
- GI50 [13]: > 25 µM
- TGI [13]: > 25 µM
- GI50 [14]: > 25 µM
- TGI [14]: > 25 µM
- GI50 [15]: > 25 µM
- TGI [15]: > 25 µM
- GI50 [16]: > 25 µM
- TGI [16]: > 25 µM
- GI50 [17]: > 25 µM
- TGI [17]: > 25 µM
- GI50 [18]: > 5.67 µM
- TGI [18]: > 25 µM
- GI50 [19]: > 25 µM
- TGI [19]: > 25 µM
- GI50 [20]: 15.4 µM
- TGI [20]: > 25 µM
- GI50 [21]: > 25 µM
- TGI [21]: > 25 µM
- GI50 [22]: > 23.3 µM
- TGI [22]: > 25 µM
- GI50 [23]: > 25 µM
- TGI [23]: > 25 µM
- GI50 [24]: > 25 µM
- TGI [24]: > 25 µM
- GI50 [25]: > 25 µM
- TGI [25]: > 25 µM
- GI50 [26]: > 25 µM
- TGI [26]: > 25 µM
- GI50 [27]: > 25 µM
- TGI [27]: > 25 µM
- GI50 [28]: > 25 µM
- TGI [28]: > 25 µM
- GI50 [29]: > 25 µM
- TGI [29]: > 25 µM
- GI50 [30]: > 25 µM
- TGI [30]: > 25 µM
- GI50 [31]: > 25 µM
- TGI [31]: > 25 µM
- GI50 [32]: > 25 µM
- TGI [32]: > 25 µM
- GI50 [33]: > 25 µM
- TGI [33]: > 25 µM
- GI50 [34]: > 25 µM
- TGI [34]: > 25 µM
- GI50 [35]: > 25 µM
- TGI [35]: > 25 µM
- GI50 [36]: > 15.2 µM
- TGI [36]: > 25 µM
- GI50 [37]: 9.94 µM
- TGI [37]: > 25 µM
- GI50 [38]: > 25 µM
- TGI [38]: > 25 µM
- GI50 [39]: > 25 µM
- TGI [39]: > 25 µM
- GI50 [40]: > 25 µM
- TGI [40]: > 25 µM
- GI50 [41]: > 25 µM
- TGI [41]: > 25 µM
- GI50 [42]: > 25 µM
- TGI [42]: > 25 µM
- GI50 [43]: > 25 µM
- TGI [43]: > 25 µM
- GI50 [44]: > 25 µM
- TGI [44]: > 25 µM
- GI50 [45]: > 25 µM
- TGI [45]: > 25 µM
- GI50 [46]: > 25 µM
- TGI [46]: > 25 µM
- GI50 [47]: > 25 µM
- TGI [47]: > 25 µM
- GI50 [48]: > 25 µM
- TGI [48]: > 25 µM
- GI50 [49]: > 25 µM
- TGI [49]: > 25 µM
- GI50 [50]: > 25 µM
- TGI [50]: > 25 µM
- GI50 [51]: > 25 µM
- TGI [51]: > 25 µM
- GI50 [52]: > 25 µM
- TGI [52]: > 25 µM
- GI50 [53]: > 25 µM
- TGI [53]: > 25 µM
- GI50 [54]: > 25 µM
- TGI [54]: > 25 µM
- GI50 [55]: > 25 µM
- TGI [55]: > 25 µM
- GI50 [56]: > 25 µM
- TGI [56]: > 25 µM
- GI50 [57]: > 25 µM
- TGI [57]: > 25 µM
